Test results taken from the NIST ThermoML archive (doi:10.1021/je0498208).

Assay: xn = mol fraction of the nth substance listed
Conditions: Liquid; for viscosity: 101 kPa; for mass density: 101.3 kPa

O=CN1CCOCC1 [N-formylmorpholine] + O
Conditions | mass density [kg/m3] | viscosity [mPa·s]
298.15 K, x1 = 0.0499 | 1038.7 | 1.45
298.15 K, x1 = 0.1007 | 1067.03 | 2.22
298.15 K, x1 = 0.1976 | 1099.55 | 3.82
298.15 K, x1 = 0.3006 | 1117.88 | 5.05
298.15 K, x1 = 0.3917 | 1127.34 | 5.95
298.15 K, x1 = 0.5001 | 1134.34 | 6.53
298.15 K, x1 = 0.5834 | 1137.94 | 6.81
298.15 K, x1 = 0.6969 | 1141.28 | 7.25
298.15 K, x1 = 0.7942 | 1143.43 | 7.27
298.15 K, x1 = 0.9047 | 1145.19 | 7.53
298.15 K, x1 = 0.9493 | 1145.97 | 7.7
298.15 K, x1 = 1 | 1146.62 | 7.87
303.15 K, x1 = 0.0499 | 1036.24 | 1.29
303.15 K, x1 = 0.1007 | 1063.95 | 1.85
303.15 K, x1 = 0.1976 | 1095.78 | 3.33
303.15 K, x1 = 0.3006 | 1113.82 | 4.31
303.15 K, x1 = 0.3917 | 1123.11 | 5.04
303.15 K, x1 = 0.5001 | 1130.03 | 5.54
303.15 K, x1 = 0.5834 | 1133.6 | 5.79
303.15 K, x1 = 0.6969 | 1136.91 | 6.02
303.15 K, x1 = 0.7942 | 1139.05 | 6.21
303.15 K, x1 = 0.9047 | 1140.81 | 6.46
303.15 K, x1 = 0.9493 | 1141.6 | 6.62
303.15 K, x1 = 1 | 1142.26 | 6.75
313.15 K, x1 = 0.0499 | 1030.93 | 1.038
313.15 K, x1 = 0.1007 | 1057.44 | 1.52
313.15 K, x1 = 0.1976 | 1088.06 | 2.44
313.15 K, x1 = 0.3006 | 1105.52 | 3.23
313.15 K, x1 = 0.3917 | 1114.62 | 3.77
313.15 K, x1 = 0.5001 | 1121.35 | 4.19
313.15 K, x1 = 0.5834 | 1124.87 | 4.33
313.15 K, x1 = 0.6969 | 1128.16 | 4.55
313.15 K, x1 = 0.7942 | 1130.3 | 4.7
313.15 K, x1 = 0.9047 | 1132.07 | 4.9
313.15 K, x1 = 0.9493 | 1132.87 | 5.03
313.15 K, x1 = 1 | 1133.53 | 5.13
323.15 K, x1 = 0.0499 | 1025.15 | 0.854
323.15 K, x1 = 0.1007 | 1050.64 | 1.23
323.15 K, x1 = 0.1976 | 1080.16 | 1.95
323.15 K, x1 = 0.3006 | 1097.1 | 2.5
323.15 K, x1 = 0.3917 | 1105.98 | 2.88
323.15 K, x1 = 0.5001 | 1114.62 | 3.21
323.15 K, x1 = 0.5834 | 1116.08 | 3.35
323.15 K, x1 = 0.6969 | 1119.37 | 3.53
323.15 K, x1 = 0.7942 | 1121.52 | 3.67
323.15 K, x1 = 0.9047 | 1123.33 | 3.86
323.15 K, x1 = 0.9493 | 1124.14 | 4.01
323.15 K, x1 = 1 | 1124.82 | 4.03
333.15 K, x1 = 0.0499 | 1018.01 | 0.715
333.15 K, x1 = 0.1007 | 1043.55 | 1.018
333.15 K, x1 = 0.1976 | 1072.05 | 1.57
333.15 K, x1 = 0.3006 | 1088.55 | 2.1
333.15 K, x1 = 0.3917 | 1097.24 | 2.41
333.15 K, x1 = 0.5001 | 1103.8 | 2.65
333.15 K, x1 = 0.5834 | 1107.26 | 2.73
333.15 K, x1 = 0.6969 | 1110.55 | 2.84
333.15 K, x1 = 0.7942 | 1112.72 | 2.96
333.15 K, x1 = 0.9047 | 1114.57 | 3.2
333.15 K, x1 = 0.9493 | 1115.4 | 3.21
333.15 K, x1 = 1 | 1116.11 | 3.25
343.15 K, x1 = 0.0499 | 1011.38 | 0.67
343.15 K, x1 = 0.1007 | 1036.08 | 0.857
343.15 K, x1 = 0.1976 | 1063.72 | 1.27
343.15 K, x1 = 0.3006 | 1079.83 | 1.8
343.15 K, x1 = 0.3917 | 1088.36 | 2.05
343.15 K, x1 = 0.5001 | 1094.88 | 2.26
343.15 K, x1 = 0.5834 | 1098.33 | 2.33
343.15 K, x1 = 0.6969 | 1101.67 | 2.37
343.15 K, x1 = 0.7942 | 1103.88 | 2.52
343.15 K, x1 = 0.9047 | 1105.79 | 2.67
343.15 K, x1 = 0.9493 | 1106.66 | 2.67
343.15 K, x1 = 1 | 1107.39 | 2.68
